Source: ChEMBL document CHEMBL1145308 (Bioorg Med Chem Lett, 2006)

What was measured:
[1] = target: T1, Sodium- and chloride-dependent glycine transporter 1 (Homo sapiens, UniProt P48067); test: Inhibition of [3H]glycine uptake at GlyT1
T1 sequence (P48067 whole entry): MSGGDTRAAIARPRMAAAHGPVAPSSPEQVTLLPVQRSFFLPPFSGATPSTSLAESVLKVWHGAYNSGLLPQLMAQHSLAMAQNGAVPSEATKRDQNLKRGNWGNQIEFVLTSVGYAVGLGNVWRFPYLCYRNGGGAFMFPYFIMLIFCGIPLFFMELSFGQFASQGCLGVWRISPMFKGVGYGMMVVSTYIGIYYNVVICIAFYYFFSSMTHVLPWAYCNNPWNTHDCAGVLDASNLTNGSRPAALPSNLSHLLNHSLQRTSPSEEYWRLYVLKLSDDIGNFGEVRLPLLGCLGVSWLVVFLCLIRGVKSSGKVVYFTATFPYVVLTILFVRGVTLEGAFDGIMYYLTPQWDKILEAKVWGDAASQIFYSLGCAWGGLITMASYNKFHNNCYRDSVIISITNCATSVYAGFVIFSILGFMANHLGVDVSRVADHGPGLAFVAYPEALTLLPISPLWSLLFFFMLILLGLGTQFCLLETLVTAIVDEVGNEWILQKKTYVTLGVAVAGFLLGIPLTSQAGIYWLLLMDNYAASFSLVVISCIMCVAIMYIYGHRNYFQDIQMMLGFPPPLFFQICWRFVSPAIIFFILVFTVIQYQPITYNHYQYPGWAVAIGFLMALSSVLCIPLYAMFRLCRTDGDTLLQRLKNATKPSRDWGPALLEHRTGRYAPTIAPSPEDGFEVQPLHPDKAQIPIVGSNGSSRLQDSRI

[2] = target: T2, Sodium- and chloride-dependent glycine transporter 2 (Homo sapiens, UniProt Q9Y345); test: Inhibition of [3H]glycine uptake at GlyT2
T2 sequence (Q9Y345 whole entry): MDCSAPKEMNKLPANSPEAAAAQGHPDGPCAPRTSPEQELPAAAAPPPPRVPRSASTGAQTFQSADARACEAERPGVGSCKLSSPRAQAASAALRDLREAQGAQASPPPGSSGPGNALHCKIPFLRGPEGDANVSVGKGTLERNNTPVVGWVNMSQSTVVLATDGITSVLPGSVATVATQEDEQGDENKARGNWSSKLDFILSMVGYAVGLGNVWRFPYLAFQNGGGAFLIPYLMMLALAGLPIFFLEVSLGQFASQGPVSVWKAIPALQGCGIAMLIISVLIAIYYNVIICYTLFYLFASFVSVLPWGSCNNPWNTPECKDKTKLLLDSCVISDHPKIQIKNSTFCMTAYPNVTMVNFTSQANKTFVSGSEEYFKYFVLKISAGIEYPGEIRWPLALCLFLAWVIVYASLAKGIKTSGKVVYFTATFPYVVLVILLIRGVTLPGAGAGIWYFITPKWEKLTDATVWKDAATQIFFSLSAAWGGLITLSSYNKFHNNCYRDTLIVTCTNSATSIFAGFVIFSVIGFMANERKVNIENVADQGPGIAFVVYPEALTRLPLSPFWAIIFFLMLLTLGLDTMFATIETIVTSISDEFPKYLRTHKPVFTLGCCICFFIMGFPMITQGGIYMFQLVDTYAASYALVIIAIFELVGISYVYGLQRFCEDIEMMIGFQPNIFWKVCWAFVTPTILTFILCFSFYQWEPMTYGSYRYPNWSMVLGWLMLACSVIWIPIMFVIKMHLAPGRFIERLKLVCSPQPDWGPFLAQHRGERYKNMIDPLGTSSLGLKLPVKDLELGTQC

[3] = in vitro; conditions: mouse, microsomes, CL
Description: Intrinsic clearance in mouse microsome

[4] = in vitro; conditions: human, microsomes, CL
Description: Intrinsic clearance in human microsome

[5] = in vitro; conditions: mouse, microsomes, Max Achievable Bioavailability
Description: Maximum achievable bioavailability in mouse microsome

[6] = in vitro; conditions: human, microsomes, Max Achievable Bioavailability
Description: Maximum achievable bioavailability in human microsome

Compound	EC50 [1] [nM]	other results
O=C1NCC(c2ccc(F)cc2)C12CCN(C1(c3ccc(F)cc3)CCC1)CC2 (configuration not stated)	> 30000	
Cc1cccc(C2(N3CCC4(CC3)C(=O)NCC4c3ccc(F)cc3)CCCCC2)c1 (racemic)	563	EC50 [2]: > 30000 nM
O=C1NCC(c2ccc(C(F)(F)F)cc2)C12CCN(C1(c3ccc(F)cc3)CCCCC1)CC2 (racemic)	433	
O=C1NCC(c2ccc(F)cc2)C12CCN(C1(C3CC3)CCCCC1)CC2 (racemic)	> 30000	
CC(C)C1(N2CCC3(CC2)C(=O)NCC3c2ccc(F)cc2)CCCCC1 (racemic)	787	
N#Cc1cccc(C2(N3CCC4(CC3)C(=O)NCC4c3ccc(F)cc3)CCCCC2)c1 (racemic)	> 30000	
Cc1ccc(C2CNC(=O)C23CCN(C2(c4ccc(F)cc4)CCCCC2)CC3)cc1 (racemic)	73	
O=C1NCC(c2ccccc2)C12CCN(C1(C3CCCC3)CCCCC1)CC2 (racemic)	6290	
O=C1NCC(c2ccccc2)C12CCN(C1(C3CC3)CCCCC1)CC2 (racemic)	> 30000	
CCCC1CNC(=O)C12CCN(C1(c3ccc(F)cc3)CCCCC1)CC2 (racemic)		microsomal CLint [3]: 24 µL/min/mg; microsomal CLint [4]: 14 µL/min/mg; Fh [5]: 57%; Fh [6]: 53%
CC(C)C1(N2CCC3(CC2)C(=O)NCC3c2ccccc2)CCCCC1 (racemic)	970	
O=C1NCC(c2ccc(F)cc2)C12CCN(C1(c3ccc(F)cc3)CCCCC1)CC2 (racemic)		EC50 [2]: > 30000 nM
CC(C)=CC1(N2CCC3(CC2)C(=O)NCC3c2ccccc2)CCCCC1 (racemic)	979	
Cc1ccc(C2CNC(=O)C23CCN(C2(c4ccccc4)CCCCC2)CC3)cc1 (racemic)	139	
Cc1ccccc1C1(N2CCC3(CC2)C(=O)NCC3c2ccc(F)cc2)CCCCC1 (racemic)	350	EC50 [2]: > 30000 nM
CCCC1CNC(=O)C12CCN(C1(c3cccs3)CCCCC1)CC2 (racemic)	229	
O=C1NCC(c2ccccc2)C12CCN(C1(c3cccs3)CCCCC1)CC2 (racemic)	147	
O=C1NCC(c2ccccc2)C12CCN(C1(c3ccc(OC(F)(F)F)cc3)CCCCC1)CC2 (racemic)	4560	
O=C1NCC(c2ccccc2)C12CCN(C1(c3ccsc3)CCCCC1)CC2 (racemic)	682	
CCCC1CNC(=O)C12CCN(C1(c3ccc(C)s3)CCCCC1)CC2 (racemic)	113	
O=C1NCC(c2ccccc2)C12CCN(C1(C3CCCCC3)CCCCC1)CC2 (racemic)	15200	
O=C1NCC(c2ccc(F)cc2)C12CCN(C1(c3cccc(F)c3)CCCCC1)CC2 (racemic)	393	EC50 [2]: > 30000 nM
CCC1(N2CCC3(CC2)C(=O)NCC3c2ccc(F)cc2)CCCCC1 (racemic)	1470	
Cl.O=C1NCC(c2ccc(F)cc2)C12CCN(C1(c3ccsc3)CCCCC1)CC2 (racemic)	99	microsomal CLint [3]: 39 µL/min/mg; microsomal CLint [4]: 4 µL/min/mg; Fh [5]: 45%; Fh [6]: 78%
Cl.O=C1NCC(c2ccc(F)cc2)C12CCN(C1(c3cccs3)CCCCC1)CC2 (racemic)		microsomal CLint [3]: 80 µL/min/mg; microsomal CLint [4]: 9 µL/min/mg; Fh [5]: 28%; Fh [6]: 64%
Cc1cccc(C2(N3CCC4(CC3)C(=O)NCC4c3ccc(F)cc3)CCCCC2)c1 (single isomer, unassigned; diastereomer 1)	4000	

Compound	EC50 [1] [nM]	other results
O=C1NCC(c2ccccc2)C12CCN(C1(c3ccc(Cl)cc3)CCCCC1)CC2 (single isomer, unassigned; diastereomer 1)		EC50 [2]: > 30000 nM
O=C1NCC(c2ccccc2)C12CCN(C1(c3ccccc3)CCOCC1)CC2 (single isomer, unassigned; diastereomer 1)	3660	
COc1cccc(C2(N3CCC4(CC3)C(=O)NCC4c3ccccc3)CCCCC2)c1 (single isomer, unassigned; diastereomer 1)	5610	
N#Cc1ccc(C2(N3CCC4(CC3)C(=O)NCC4c3ccccc3)CCCCC2)cc1 (single isomer, unassigned; diastereomer 1)	> 30000	
O=C1NCC(c2ccccc2)C12CCN(C1(c3ccccc3)CCCCC1)CC2 (single isomer, unassigned; diastereomer 1)		EC50 [2]: > 30000 nM
O=C1NCC(c2ccccc2)C12CCN(C1(c3ccc(C(F)(F)F)cc3)CCCCC1)CC2 (single isomer, unassigned; diastereomer 1)	1210	
O=C1NCC(c2ccc(F)cc2)C12CCN(C1(c3ccsc3)CCCCC1)CC2 (single isomer, unassigned; diastereomer 1)	213	
O=C1NCC(c2ccccc2)C12CCN(C1(c3cccc(F)c3)CCCCC1)CC2 (single isomer, unassigned; diastereomer 1)	423	EC50 [2]: > 30000 nM
Cc1ccc(C2(N3CCC4(CC3)C(=O)NCC4c3ccc(F)cc3)CCCCC2)cc1 (single isomer, unassigned; diastereomer 1)	1470	
F.O=C1NCC(c2ccc(F)cc2)C12CCN(C1(c3ccc(F)cc3)CCCCC1)CC2 (single isomer, unassigned; diastereomer 1)		EC50 [2]: > 30000 nM; Fh [5]: 46%; Fh [6]: 67%
Cc1cccc(C2(N3CCC4(CC3)C(=O)NCC4c3ccc(F)cc3)CCCCC2)c1 (single isomer, unassigned; diastereomer 2)	949	EC50 [2]: > 30000 nM
O=C1NCC(c2ccccc2)C12CCN(C1(c3ccc(Cl)cc3)CCCCC1)CC2 (single isomer, unassigned; diastereomer 2)		EC50 [2]: > 30000 nM
Cc1ccc(C2(N3CCC4(CC3)C(=O)NCC4c3ccccc3)CCCCC2)cc1 (single isomer, unassigned; diastereomer 2)	480	EC50 [2]: > 30000 nM
COc1cccc(C2(N3CCC4(CC3)C(=O)NCC4c3ccccc3)CCCCC2)c1 (single isomer, unassigned; diastereomer 2)	26200	
O=C1NCC(c2ccc(F)cc2)C12CCN(C1(c3cccc(OC(F)(F)F)c3)CCCCC1)CC2 (single isomer, unassigned; diastereomer 2)	21500	
O=C1NCC(c2ccccc2)C12CCN(C1(c3ccccc3)CCCCC1)CC2 (single isomer, unassigned; diastereomer 2)		EC50 [2]: > 30000 nM
O=C1NCC(c2ccccc2)C12CCN(C1(c3cccc(F)c3)CCCCC1)CC2 (single isomer, unassigned; diastereomer 2)	684	EC50 [2]: > 30000 nM
Cc1ccc(C2(N3CCC4(CC3)C(=O)NCC4c3ccc(F)cc3)CCCCC2)cc1 (single isomer, unassigned; diastereomer 2)	419	
O=C1NCC(c2ccccc2)C12CCN(C1(c3ccc(C(F)(F)F)cc3)CCCCC1)CC2 (single isomer, unassigned; diastereomer 2)	6970	
O=C1NCC(c2ccccc2)C12CCN(C1(c3ccccc3)CCOCC1)CC2 (single isomer, unassigned; diastereomer 4)	525	
Cc1ccc(C2(N3CCC4(CC3)C(=O)NCC4c3ccccc3)CCCCC2)cc1 (stereo in doubt)	284	EC50 [2]: > 30000 nM
N#Cc1ccc(C2(N3CCC4(CC3)C(=O)NCC4c3ccccc3)CCCCC2)cc1 (stereo in doubt)	16000	
O=C1NCC(c2ccc(F)cc2)C12CCN(C1(c3cccc(OC(F)(F)F)c3)CCCCC1)CC2 (stereo in doubt)	16700	
O=C1NCC(c2ccc(F)cc2)C12CCN(C1(c3ccsc3)CCCCC1)CC2 (stereo in doubt)	99	
O=C1NCC(c2ccccc2)C12CCN(C1(c3ccccc3)CCOCC1)CC2 (stereo in doubt; form 1)	7290	
O=C1NCC(c2ccccc2)C12CCN(C1(c3ccccc3)CCOCC1)CC2 (stereo in doubt; form 2)	> 30000	
